Laboratory results: DBAASP
Values after ≈ are worked out from the molar mass of the structure shown. Values joined by “and” are separate entries in the source; they are usually repeats but may differ in a detail not shown here. Equal entries are not always repeated. One block for each compound: values may come before it.

Tests used:
Assay in all cases: ≥ marks a high value that may be exact or a test limit, other limits are often not marked, values filed in µg/mL are converted to µM
[1] = test system: Salmonella enterica subsp. enterica serovar Typhimurium ATCC 14028
Escherichia coli UB1005 = test system: Escherichia coli UB1005
[2] = test system: Salmonella enterica subsp. enterica serovar Typhimurium C77-31
[3] = test system: Candida albicans CGMCC 2.2086
[4] = test system: Staphylococcus aureus ATCC 43300
[5] = test system: Staphylococcus aureus ATCC 29213
[6] = test system: Escherichia coli ATCC 25922
[7] = test system: Salmonella enterica subsp. enterica serovar Pullorum ATCC 7913
Escherichia coli K99 = test system: Escherichia coli K99
[8] = test system: Staphylococcus epidermidis ATCC 12228
[9] = test system: Candida parapsilosis CGMCC 2.3989
Escherichia coli 078 = test system: Escherichia coli 078
Escherichia coli K88 = test system: Escherichia coli K88
[10] = test system: Staphylococcus aureus ATCC 25923
[11] = test system: Candida tropicalis CGMCC 2.1975
[12] = test system: Pseudomonas aeruginosa ATCC 27853
[13] = test system: Streptococcus mitis ATCC 903
[14] = test system: Streptococcus gordonii Challis DL1
[15] = test system: Pseudomonas aeruginosa PAK
Staphylococcus aureus = test system: Staphylococcus aureus
[16] = test system: Streptococcus mutans UA159
[17] = test system: Streptococcus sanguinis NY101
Candida albicans = test system: Candida albicans
[18] = test system: Legionella pneumophila Lens

MIC [1]: > 128 µM
MIC (Escherichia coli UB1005): ≥ 128 µM
MIC [2]: ≥ 128 µM
MIC [3]: ≥ 128 µM
MIC [4]: > 128 µM
MIC [5]: > 128 µM
MIC [6]: > 128 µM
MIC [7]: ≥ 128 µM
MIC (Escherichia coli K99): ≥ 128 µM
MIC [8]: > 128 µM
MIC [9]: ≥ 128 µM
MIC (Escherichia coli 078): ≥ 128 µM
MIC (Escherichia coli K88): ≥ 128 µM
MIC [10]: > 128 µM
MIC [11]: ≥ 128 µM
MIC [12]: > 128 µM
SMILES: CC[C@H](C)[C@H](NC(=O)[C@H](CCCN=C(N)N)NC(=O)[C@H](C)NC(=O)[C@H](C)N)C(=O)N[C@H](C(=O)N[C@@H](CC(C)C)C(=O)N[C@@H](CCCN=C(N)N)C(=O)N[C@@H](CC(=O)O)C(=O)N[C@@H](CCCN=C(N)N)C(=O)N[C@@H](Cc1ccccc1)C(=O)N[C@@H](CCCN=C(N)N)C(N)=O)[C@@H](C)CC [AARIILRDRFR]

MIC [1]: 4 µM (≈ 5.83 µg/mL)
MIC (Escherichia coli UB1005): 2 µM (≈ 2.91 µg/mL)
MIC [2]: 4 µM (≈ 5.83 µg/mL)
MIC [4]: 8 µM (≈ 11.7 µg/mL)
MIC [7]: 4 µM (≈ 5.83 µg/mL)
MIC (Escherichia coli K99): 2 µM (≈ 2.91 µg/mL)
MIC [8]: 2 µM (≈ 2.91 µg/mL)
MIC [9]: 4 µM (≈ 5.83 µg/mL)
MIC (Escherichia coli 078): 1.37 µM (≈ 2 µg/mL)
MIC (Escherichia coli K88): 2 µM (≈ 2.91 µg/mL)
MIC [10]: 8 µM (≈ 11.7 µg/mL)
MIC [11]: 4 µM (≈ 5.83 µg/mL)
MIC [12]: 8 µM (≈ 11.7 µg/mL)
SMILES: CC[C@H](C)[C@H](NC(=O)[C@H](CCCN=C(N)N)NC(=O)[C@H](C)NC(=O)[C@H](C)N)C(=O)N[C@H](C(=O)N[C@@H](CC(C)C)C(=O)N[C@@H](CCCN=C(N)N)C(=O)N[C@@H](Cc1c[nH]c2ccccc12)C(=O)N[C@@H](Cc1ccccc1)C(=O)N[C@@H](CCCN=C(N)N)C(=O)N[C@@H](CCCN=C(N)N)C(N)=O)[C@@H](C)CC [AARIILRWFRR]

MIC [13]: 9.43 µM (≈ 32 µg/mL)
MIC [14]: 9.43 µM (≈ 32 µg/mL)
MIC [15]: 9.43 µM (≈ 32 µg/mL)
MIC (Staphylococcus aureus): 4.72 µM (≈ 16 µg/mL)
MIC [16]: 4.72 µM (≈ 16 µg/mL)
MIC [17]: 9.43 µM (≈ 32 µg/mL)
SMILES: CC[C@H](C)[C@H](NC(=O)[C@H](Cc1ccccc1)NC(=O)[C@H](Cc1cnc[nH]1)NC(=O)[C@H](CCCCN)NC(=O)[C@@H](NC(=O)[C@@H](N)Cc1ccccc1)[C@@H](C)CC)C(=O)N[C@@H](Cc1cnc[nH]1)C(=O)N[C@@H](CCCN=C(N)N)C(=O)N[C@@H](Cc1ccccc1)C(=O)N[C@@H](CO)C(=O)N[C@@H](C)C(=O)N[C@H](C(=O)N[C@@H](CCCN=C(N)N)C(=O)N[C@@H](Cc1c[nH]c2ccccc12)C(=O)N[C@@H](CCCN=C(N)N)C(=O)N[C@@H](CCCN=C(N)N)C(=O)N[C@@H](CC(C)C)C(=O)N[C@@H](CC(C)C)C(=O)N[C@@H](CCCCN)C(=O)N[C@@H](CCCCN)C(=O)N[C@@H](CC(C)C)C(=O)N[C@@H](Cc1cnc[nH]1)C(=O)N[C@@H](Cc1cnc[nH]1)C(=O)N[C@@H](CC(C)C)C(=O)N[C@@H](CC(C)C)C(=O)N[C@@H](Cc1cnc[nH]1)C(N)=O)[C@@H](C)O [FIKHFIHRFSATRWRRLLKKLHHLLH]

MIC [13]: 18.7 µM (≈ 62.5 µg/mL)
MIC [14]: 9.6 µM (≈ 32 µg/mL)
MIC [15]: 9.6 µM (≈ 32 µg/mL)
MIC (Staphylococcus aureus): 9.6 µM (≈ 32 µg/mL)
MIC [16]: 4.8 µM (≈ 16 µg/mL)
MIC [17]: 4.8 µM (≈ 16 µg/mL)
SMILES: CC[C@H](C)[C@H](NC(=O)[C@H](Cc1ccccc1)NC(=O)[C@H](Cc1cnc[nH]1)NC(=O)[C@H](CCCCN)NC(=O)[C@@H](NC(=O)[C@@H](N)Cc1ccccc1)[C@@H](C)CC)C(=O)N[C@@H](Cc1cnc[nH]1)C(=O)N[C@@H](CCCN=C(N)N)C(=O)N[C@@H](Cc1ccccc1)C(=O)N[C@@H](CO)C(=O)NCC(=O)NCC(=O)N[C@@H](CCCN=C(N)N)C(=O)N[C@@H](Cc1c[nH]c2ccccc12)C(=O)N[C@@H](CCCN=C(N)N)C(=O)N[C@@H](CCCN=C(N)N)C(=O)N[C@@H](CC(C)C)C(=O)N[C@@H](CC(C)C)C(=O)N[C@@H](CCCCN)C(=O)N[C@@H](CCCCN)C(=O)N[C@@H](CC(C)C)C(=O)N[C@@H](Cc1cnc[nH]1)C(=O)N[C@@H](Cc1cnc[nH]1)C(=O)N[C@@H](CC(C)C)C(=O)N[C@@H](CC(C)C)C(=O)N[C@@H](Cc1cnc[nH]1)C(N)=O [FIKHFIHRFSGGRWRRLLKKLHHLLH]

MIC [3]: ≥ 32 µM
MIC (Candida albicans): 32 µM (≈ 66.5 µg/mL)
MIC [9]: ≥ 32 µM
MIC [11]: 8 µM (≈ 16.6 µg/mL)
SMILES: CC[C@H](C)[C@H](NC(=O)CNC(=O)[C@H](CCCCN)NC(=O)[C@H](Cc1ccccc1)NC(=O)[C@H](CC(C)C)NC(=O)[C@H](CC(C)C)NC(=O)[C@H](Cc1ccccc1)NC(=O)[C@H](CCCCN)NC(=O)CNC(=O)[C@@H](NC(=O)[C@@H](N)CCCCN)[C@@H](C)CC)C(=O)N[C@@H](CCCCN)C(=O)N[C@@H](CCCCN)C(=O)N[C@H](C(=O)NCC(=O)N[C@@H](CCCCN)C(=O)N[C@@H](Cc1ccccc1)C(=O)N[C@@H](CC(C)C)C(N)=O)[C@@H](C)CC [KIGKFLLFKGIKKIGKFL]

SMILES: CC[C@H](C)[C@H](NC(=O)CNC(=O)[C@H](CCCCN)NC(=O)[C@@H](NC(=O)[C@H](CC(C)C)NC(=O)[C@H](CC(C)C)NC(=O)[C@@H](NC(=O)[C@H](CCCCN)NC(=O)CNC(=O)[C@@H](NC(=O)[C@@H](N)CCCCN)[C@@H](C)CC)C(C)C)C(C)C)C(=O)N[C@@H](CCCCN)C(=O)N[C@@H](CCCCN)C(=O)N[C@H](C(=O)NCC(=O)N[C@@H](CCCCN)C(=O)N[C@H](C(=O)N[C@@H](CC(C)C)C(N)=O)C(C)C)[C@@H](C)CC [KIGKVLLVKGIKKIGKVL]
MIC [3]: ≥ 32 µM
MIC (Candida albicans): > 64 µM and 32 µM
MIC [9]: ≥ 32 µM
MIC [11]: 16 µM (≈ 30.9 µg/mL)

MIC [18]: 0.94 µM (≈ 2.32 µg/mL)
SMILES: CC[C@H](C)[C@H](NC(=O)[C@H](CC(C)C)NC(=O)[C@H](CCCCN)NC(=O)[C@H](CCCCN)NC(=O)[C@@H](NC(=O)[C@@H](NC(=O)[C@H](CCC(=O)O)NC(=O)[C@@H](NC(=O)[C@@H](NC(=O)[C@H](CCCCN)NC(=O)[C@H](C)NC(=O)[C@@H](NC(=O)[C@@H](NC(=O)CNC(=O)[C@H](C)NC(=O)[C@@H](N)CCSC)C(C)C)[C@@H](C)CC)[C@@H](C)CC)C(C)C)[C@@H](C)CC)C(C)C)C(=O)N[C@@H](CC(=O)O)C(=O)N[C@@H](CCC(N)=O)C(=O)N[C@@H](Cc1ccccc1)C(=O)N[C@H](C(=O)N[C@@H](CCC(N)=O)C(=O)N[C@@H](CCCCN)C(=O)O)[C@@H](C)O [MAGVIAKIVEIVKKLIDQFTQK]

MIC [18]: 3.7 µM (≈ 9.21 µg/mL)
SMILES: CC[C@H](C)[C@H](NC(=O)[C@H](CC(C)C)NC(=O)[C@H](CC(=O)O)NC(=O)[C@@H](NC(=O)[C@@H](NC(=O)[C@H](Cc1ccccc1)NC(=O)[C@H](CCC(N)=O)NC(=O)[C@@H](N)CCSC)[C@@H](C)CC)[C@@H](C)O)C(=O)NCC(=O)N[C@@H](CCCCN)C(=O)N[C@@H](C)C(=O)N[C@H](C(=O)N[C@@H](CC(=O)O)C(=O)N[C@@H](Cc1ccccc1)C(=O)N[C@@H](Cc1ccccc1)C(=O)N[C@@H](CCCCN)C(=O)NCC(=O)N[C@@H](CC(C)C)C(=O)N[C@@H](Cc1ccccc1)C(=O)NCC(=O)N[C@@H](CC(N)=O)C(=O)N[C@@H](CCCCN)C(=O)O)C(C)C [MQFITDLIGKAVDFFKGLFGNK]

MIC [18]: 5.08 µM (≈ 12.5 µg/mL)
SMILES: CC[C@H](C)[C@H](NC(=O)[C@H](C)NC(=O)[C@H](CCCCN)NC(=O)[C@@H](NC(=O)[C@@H](NC(=O)[C@H](CCC(=O)O)NC(=O)[C@@H](NC(=O)[C@@H](NC(=O)[C@H](CCCCN)NC(=O)CNC(=O)[C@H](CC(C)C)NC(=O)[C@@H](NC(=O)[C@H](CC(=O)O)NC(=O)[C@H](CCC(N)=O)NC(=O)[C@H](Cc1ccccc1)NC(=O)[C@@H](NC(=O)[C@H](CCC(N)=O)NC(=O)[C@@H](N)CCSC)[C@@H](C)O)[C@@H](C)CC)C(C)C)[C@@H](C)CC)C(C)C)[C@@H](C)CC)C(=O)N[C@H](C(=O)N[C@@H](CC(=O)O)C(=O)N[C@@H](C)C(=O)N[C@@H](CCCCN)C(=O)O)C(C)C [MQTFQDILGKVIEVIKAIVDAK]

MIC [3]: 8 µM (≈ 18 µg/mL)
MIC (Candida albicans): 8 µM and 5.66 µM
MIC [9]: 16 µM (≈ 35.9 µg/mL)
MIC [11]: 8 µM (≈ 18 µg/mL)
SMILES: CC[C@H](C)[C@H](NC(=O)CNC(=O)[C@H](CCCN=C(N)N)NC(=O)[C@H](Cc1ccccc1)NC(=O)[C@H](CC(C)C)NC(=O)[C@H](CC(C)C)NC(=O)[C@H](Cc1ccccc1)NC(=O)[C@H](CCCN=C(N)N)NC(=O)CNC(=O)[C@@H](NC(=O)[C@@H](N)CCCN=C(N)N)[C@@H](C)CC)C(=O)N[C@@H](CCCN=C(N)N)C(=O)N[C@@H](CCCN=C(N)N)C(=O)N[C@H](C(=O)NCC(=O)N[C@@H](CCCN=C(N)N)C(=O)N[C@@H](Cc1ccccc1)C(=O)N[C@@H](CC(C)C)C(N)=O)[C@@H](C)CC [RIGRFLLFRGIRRIGRFL]
